The target in experiment [1] is CutC from Clostridium sporogenes (Clostridium sporogenes, UniProt A0AAE4Z0A8). The experiment is described as follows: Cell-based assay for TMA production from a native producer (C. sporogenes). As to conditions: read-out: IC50 Whole cell C. sporogenes; d9-TMA from 1 mM d9-choline, 5 h, 37° C.; run once; value 10 given when no fit or % TMA remaining at 10 μM higher than 15%. The source says:
In each bacterium, CutC was modified into its activated form by a cognate activating enzyme, CutD (protein EDU36696.1 for C. sporogenes; protein WP_004249185.1 for P. mirabilis). […] Trimethylamine may subsequently be converted by human enzymes such as flavin monooxygenase 3 to trimethylamine N-oxide, which might be associated with negative health consequences in humans.
A compound's ability to inhibit CutC from Proteus mirabilis and C. sporogenes from converting choline into trimethylamine was tested in cells as described. A BHI blood plate was inoculated with a frozen stock of Proteus mirabilis or Clostridium sporogenes under anaerobic conditions. A single colony was isolated from the plate and inoculated into 5 mL BHI supplemented with 1 mM choline under anaerobic conditions. The liquid cultures were grown overnight at 37° C.
To prepare each sample, 300 μL of the saturated culture was then inoculated into a 30 mL dilution blank under anaerobic conditions. 1 mM (trimethyl-d9)-choline and a sufficient amount of a compound to obtain a final concentration of 10 μM were added to the inoculated dilution blank. […] The mixture was incubated at 37° C. for 5 h. […] After centrifugation, the samples were analyzed by LCMS to determine the amount of d9-TMA produced.

For experiment [2], the target named is CutC from Proteus mirabilis (Proteus mirabilis, UniProt B4EYG1). The experiment is described as follows: Cell-based assay for TMA production from a native producer (P. mirabilis). In short, it runs like this: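 Overnight anaerobic cultures of P. mirabilis or C. sporogenes, grown in BHI with 1 mM choline, were diluted and given 1 mM (trimethyl-d9)-choline plus compound at 10 μM final. After 5 h at 37° C., d9-TMA was quantified by LCMS.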

The test system of experiment [3] is CutC/D enzyme. The experiment in a line: Acute mouse model (plasma TMAO on choline diet). The experiment is classed as in vivo, male C57BL/6 mice. Here is the method: The following acute mouse model may be used to determine inhibition of the CutC/D enzyme and thus the inhibition of the formation of trimethylamine (TMA) from choline.
On day 1, male C57BL/6 mice were given a chemically defined diet (Tekland Global Rodent Diet 2018) containing 1.0% choline (g/g) for the duration of the experiment. Concurrently on day 1, mice were orally gavaged with 200 μL of compounds of interest (formulated in water). Mice were orally gavaged with the compounds and vehicle control again on day 2 and day 3 at a fixed time. Twenty hours after the last gavage, mice were sacrificed, and plasma was collected and prepared for detection of trimethylamine-N-oxide (TMAO) via liquid chromatography with on-line tandem mass spectrometry (LC-MS/MS). Food consumption and mouse weight were measured each day.
Plasma samples were prepared for LCMS as follows: An aliquot of 20 μL plasma sample was protein precipitated with 200 μL internal standard solution (100 ng/mL Labetalol & 100 ng/mL Tolbutamide & 100 ng/mL Diclofenac in acetonitrile, the mixture was vortex-mixed and centrifuged at 4000 rpm for 15 min, 4° C. An aliquot of 100 μL supernatant was transferred to the sample plate for LCMS injection. 1 μL of sample was injected onto an LC column for TMAO LCMS analysis.
Concentrations of TMAO were determined with a calibration curve ranging 0.05-100 μM for d9-TMAO in control plasma.

[4] abbreviates: d9-TMA from 1 mM d9-choline, 5 h, 37° C.; value 10 given when no fit or % TMA remaining at 10 μM higher than 15%; read-out: Average IC50 Whole cell P. mirabilis.
[5] abbreviates: Table 4b, 10 mg/kg oral gavage days 1-3.
The mark [6] stands for this setting: Table 4b, 10 mg/kg oral gavage days 1-3, plasma 20 h after last gavage.

The source of these data is US20220041641A1, “QUATERNARY AMMONIUM SALTS AS INHIBITORS OF TRIMETHYLAMINE PRODUCTION” (Senda Biosciences, Inc., priority 2018, published 2022).

Where “and” joins values, the source holds several entries; their conditions need not be identical. Identical values can stand only once. Counter-ions that a name gives are not always drawn. Like-named read-outs stand apart in the source and are kept apart here.

Sequence of CutC from Clostridium sporogenes (A0ABD6RTF0 entry or part of it): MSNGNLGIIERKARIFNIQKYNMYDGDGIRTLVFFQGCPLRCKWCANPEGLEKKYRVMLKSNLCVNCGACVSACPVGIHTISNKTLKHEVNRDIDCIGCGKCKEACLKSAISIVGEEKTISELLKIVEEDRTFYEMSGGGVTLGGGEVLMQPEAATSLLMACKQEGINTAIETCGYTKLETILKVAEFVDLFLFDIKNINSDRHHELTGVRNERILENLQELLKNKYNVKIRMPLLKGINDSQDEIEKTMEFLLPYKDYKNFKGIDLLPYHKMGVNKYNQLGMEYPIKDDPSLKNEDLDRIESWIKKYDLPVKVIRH
Sequence of CutC from Clostridium sporogenes (A0AAE4Z0A8 entry or part of it): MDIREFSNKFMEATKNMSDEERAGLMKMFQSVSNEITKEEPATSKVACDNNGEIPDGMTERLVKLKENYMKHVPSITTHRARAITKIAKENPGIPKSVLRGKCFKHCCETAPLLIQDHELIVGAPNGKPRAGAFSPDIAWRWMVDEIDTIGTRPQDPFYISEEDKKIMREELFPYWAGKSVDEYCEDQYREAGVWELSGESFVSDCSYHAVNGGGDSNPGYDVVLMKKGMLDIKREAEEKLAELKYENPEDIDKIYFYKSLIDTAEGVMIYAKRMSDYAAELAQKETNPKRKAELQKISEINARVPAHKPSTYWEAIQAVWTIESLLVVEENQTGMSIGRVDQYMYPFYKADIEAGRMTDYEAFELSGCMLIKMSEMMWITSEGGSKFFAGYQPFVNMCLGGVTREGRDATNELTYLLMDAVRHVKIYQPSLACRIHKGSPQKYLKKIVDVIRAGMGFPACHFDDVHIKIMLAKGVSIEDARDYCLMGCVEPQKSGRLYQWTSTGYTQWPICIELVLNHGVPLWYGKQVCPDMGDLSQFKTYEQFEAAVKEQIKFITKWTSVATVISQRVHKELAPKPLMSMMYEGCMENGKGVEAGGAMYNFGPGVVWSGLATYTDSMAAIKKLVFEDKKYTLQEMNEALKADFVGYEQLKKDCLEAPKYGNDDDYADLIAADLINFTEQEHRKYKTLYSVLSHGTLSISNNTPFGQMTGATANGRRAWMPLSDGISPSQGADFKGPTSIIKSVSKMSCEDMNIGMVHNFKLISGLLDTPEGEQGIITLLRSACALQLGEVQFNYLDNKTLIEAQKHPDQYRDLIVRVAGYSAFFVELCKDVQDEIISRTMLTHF
Sequence of CutC from Proteus mirabilis (B4EYG1 entry or part of it): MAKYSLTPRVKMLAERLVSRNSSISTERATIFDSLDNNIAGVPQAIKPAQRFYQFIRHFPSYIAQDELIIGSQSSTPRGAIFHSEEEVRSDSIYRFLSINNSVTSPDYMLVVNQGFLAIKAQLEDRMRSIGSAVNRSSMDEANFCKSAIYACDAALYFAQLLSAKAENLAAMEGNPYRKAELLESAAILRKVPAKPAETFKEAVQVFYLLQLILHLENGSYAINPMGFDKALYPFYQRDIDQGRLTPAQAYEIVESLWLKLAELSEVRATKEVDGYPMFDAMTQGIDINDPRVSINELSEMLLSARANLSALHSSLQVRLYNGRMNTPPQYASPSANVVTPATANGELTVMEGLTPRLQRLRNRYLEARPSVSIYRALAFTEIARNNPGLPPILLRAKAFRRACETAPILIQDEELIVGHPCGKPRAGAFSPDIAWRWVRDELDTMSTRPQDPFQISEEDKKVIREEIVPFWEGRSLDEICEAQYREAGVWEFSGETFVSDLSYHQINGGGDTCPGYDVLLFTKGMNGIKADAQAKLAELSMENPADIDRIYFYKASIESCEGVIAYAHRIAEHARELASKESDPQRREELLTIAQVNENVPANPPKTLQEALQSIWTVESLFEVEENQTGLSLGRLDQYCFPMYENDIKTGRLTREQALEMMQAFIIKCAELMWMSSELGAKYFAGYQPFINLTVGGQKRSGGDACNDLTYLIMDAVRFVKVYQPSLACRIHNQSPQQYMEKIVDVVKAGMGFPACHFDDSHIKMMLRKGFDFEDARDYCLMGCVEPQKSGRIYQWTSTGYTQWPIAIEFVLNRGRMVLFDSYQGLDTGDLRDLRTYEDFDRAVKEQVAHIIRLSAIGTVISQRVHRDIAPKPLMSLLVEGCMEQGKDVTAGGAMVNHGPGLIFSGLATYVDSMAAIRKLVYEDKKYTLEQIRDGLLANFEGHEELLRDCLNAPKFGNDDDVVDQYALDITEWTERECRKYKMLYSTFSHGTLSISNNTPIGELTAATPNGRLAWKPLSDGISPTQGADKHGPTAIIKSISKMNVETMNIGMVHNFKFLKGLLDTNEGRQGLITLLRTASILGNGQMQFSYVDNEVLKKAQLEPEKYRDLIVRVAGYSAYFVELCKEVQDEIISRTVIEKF
Sequence of CutC from Proteus mirabilis (B4EYG0 entry or part of it, further chain): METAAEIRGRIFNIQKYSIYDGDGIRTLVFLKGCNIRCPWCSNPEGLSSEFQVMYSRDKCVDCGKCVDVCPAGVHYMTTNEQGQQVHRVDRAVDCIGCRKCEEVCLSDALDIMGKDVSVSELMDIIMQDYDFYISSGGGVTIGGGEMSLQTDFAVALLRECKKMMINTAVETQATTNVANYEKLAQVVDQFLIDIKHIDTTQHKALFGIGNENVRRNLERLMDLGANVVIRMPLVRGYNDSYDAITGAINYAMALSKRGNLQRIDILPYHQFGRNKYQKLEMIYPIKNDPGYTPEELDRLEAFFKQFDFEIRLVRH

Regarding `C#CC[N+]1(C)CCC[C@H]1CO` (stereo partly drawn) [Compound 108, (2S)-2-(hydroxymethyl)-1-methyl-1-(prop-2-yn-1-yl)pyrrolidin-1-ium bromide], the IC50 in experiment [1] came to 2460 nM; in experiment [2] (setting [4]), 2190 nM.
For `C[N+]1(C)CCCC1CO` (centres unmarked) [Compound 110, 2-(hydroxymethyl)-1,1-dimethylpyrrolidin-1-ium Iodide] the same measures were at least 10000 nM and at least 10000 nM.
For `C#CC[N+]1(C)CC[C@H](O)C1` (stereo partly drawn) [Compound 112, (3S)-3-hydroxy-1-methyl-1-(prop-2-yn-1-yl)pyrrolidin-1-ium bromide], in that order: 280 nM and 550 nM.
For `C#CC[N+]1(C)CC[C@@H](O)C1` (stereo partly drawn) [Compound 113, (3R)-3-hydroxy-1-methyl-1-(prop-2-yn-1-yl)pyrrolidin-1-ium bromide], in that order: 1250 nM and 700 nM.
For `C[N+]1(CF)CC[C@H](O)C1` (stereo partly drawn) [Compound 114, (3S)-1-(fluoromethyl)-3-hydroxy-1-methylpyrrolidin-1-ium Iodide], the IC50 in experiment [1] was found to be 1630 nM; in experiment [2] (setting [4]), 2080 nM.
For `C[N+]1(CF)CC[C@@H](O)C1` (stereo partly drawn) [Compound 115, (3R)-1-(fluoromethyl)-3-hydroxy-1-methylpyrrolidin-1-ium Iodide], in that order: 9850 nM and 2070 nM.
For `C[N+]1(C)CC[C@@H](O)C1` [Compound 116, (R)-3-hydroxy-1,1-dimethylpyrrolidin-1-ium Iodide], in that order: at least 10000 nM and at least 10000 nM.
For `C[N+]1(C)CC[C@H](O)C1` [Compound 117, (S)-3-hydroxy-1,1-dimethylpyrrolidin-1-ium Iodide], in that order: at least 10000 nM and at least 10000 nM.
For the compound `C[N+](C)(C)CCCC(=O)O` [Compound 127, 3-carboxy-N,N,N-trimethylpropan-1-aminium Iodide], the IC50 in experiment [1] was at least 10000 nM; in experiment [2] (setting [4]), 5010 nM.
For `C[N+](C)(C)CCNC=O` [Compound 128] the same measures were at least 10000 nM and at least 10000 nM.
Regarding `C#CC[N@@+]1(C)CCC[C@@H]1CO` [Compound 129, (1R,2R)-2-(hydroxymethyl)-1-methyl-1-(prop-2-yn-1-yl)pyrrolidin-1-ium Bromide], the 50% inhibitory concentration (IC50) in experiment [1] and in experiment [2] (setting [4]) was at least 10000 nM in each case.
Consider `C#CCC[N+](C)(C)C` [Compound 130], for which the IC50 in experiment [1] is at least 10000 nM; in experiment [2] (setting [4]), 3470 nM.
For `C[N+](C)(C)CC#CCO` [Compound 132, 4-hydroxy-N,N,N-trimethylbut-2-yn-1-aminium Chloride] the same measures were at least 10000 nM and at least 10000 nM.
For `C#CC(C)[N+](C)(C)C` (centres unmarked) [Compound 133] the same measures were 440 nM and 660 nM.
For `C[N+]1(C)CCCC1COCc1ccccc1` (centres unmarked) [Compound 134, 2-[(benzyloxy)methyl]-1,1-dimethylpyrrolidin-1-ium Iodide], in that order: at least 10000 nM and at least 10000 nM.
As for `C#CC1CC[N+](C)(C)C1` (centres unmarked) [Compound 137, 3-ethynyl-1,1-dimethylpyrrolidin-1-ium Iodide], the IC50 in experiment [1] and in experiment [2] (setting [4]) was at least 10000 nM each time.
With `C#CC[N+](C)(C)CCCO` [Compound 138, N-(3-hydroxypropyl)-N,N-dimethylprop-2-yn-1-aminium Trifluoroacetate], the IC50 is 5350 nM in experiment [1] and 1050 nM in experiment [2] (setting [4]).
For `C[S+]([O-])C[N+](C)(C)C` (centres unmarked) [Compound 140, (methanesulfinylmethyl)trimethylazanium Chloride], in that order: at least 10000 nM and at least 10000 nM.
Consider `C#CC[N+](C)(C)CCCCO.O=C([O-])C(F)(F)F` [Compound 141, 4-hydroxy-N,N-dimethyl-N-(prop-2-yn-1-yl)butan-1-aminium Trifluoroacetate], for which the “% change from vehicle control + choline diet” value (from here on “% change”) in experiment [3] (setting [5]) is −88.23%. Moreover, in experiment [3] (setting [6]), the “Mean plasma TMAO” value was 2.92 µM. Further, the values for the IC50 in experiment [1] and in experiment [2] (setting [4]) were at least 10000 nM and 5250 nM, respectively.
In the case of `C[N+](C)(C)CCCP(=O)(O)O` [Compound 143, N,N,N-trimethyl-3-phosphonopropan-1-aminium Trifluoroacetatetrifluoroacetatetrifluoroacetatetrifluoroacetatetrifluoroacetate], the half-maximal inhibitory concentration (IC50) in experiment [1] is at least 10000 nM; in experiment [2] (read-out: Average IC50 Whole cell P. mirabilis; d9-TMA from 1 mM d9-choline, 5 h, 37° C.; value 10 given when no fit or % TMA remaining at 10 μM higher than 15%) it was at least 10000 nM.
For the compound `C#CC[N+](C)(C)CCCC(=O)O` [Compound 144, N-(3-carboxypropyl)-N,N-dimethylprop-2-yn-1-aminium Iodide], the IC50 is 700 nM in experiment [1] and 580 nM in experiment [2] (setting [4]).
For `C[N+](C)(CCO)c1ccccc1` [Compound 145], in that order: 1380 nM and at least 10000 nM.
For `C[N+](C)(CF)CC(O)O` [Compound 146] the same measures were 1500 nM and at least 10000 nM.
Turning to `C[N+]1(CF)CCC[C@@H]1CO` (stereo partly drawn) [Compound 151, (2R)-1-(fluoromethyl)-2-(hydroxymethyl)-1-methylpyrrolidin-1-ium Iodide], in experiment [3] (Table 4g, 116 mg/kg oral gavage days 1-3), the “% change” value came to 6%. For the same compound, the “Mean plasma TMAO” value in experiment [3] (Table 4g, 116 mg/kg oral gavage days 1-3, plasma 20 h after last gavage) amounted to 29.4 µM. In addition, the half-maximal inhibitory concentration (IC50) in experiment [2] (setting [4]) came to 890 nM.
For `C#CC[N+](C)(C)CC(=C)Cl.[Cl-]` [Compound 185, (2-chloroprop-2-en-1-yl)dimethyl(prop-2-yn-1-yl)azanium Chloride], the “% change” value in experiment [3] (Table 4e, 123.7 mg/kg oral gavage days 1-3) is on record as −16%. The “Mean plasma TMAO” value in experiment [3] (Table 4e, 123.7 mg/kg oral gavage days 1-3, plasma 20 h after last gavage) amounted to 22.2 µM. Moreover, the IC50 in experiment [2] (setting [4]) was 235 nM.
`C#CC[N+](C)(C)CCCCC(=O)O` [Compound A51, 4-carboxy-N,N-dimethyl-N-(prop-2-yn-1-yl)butan-1-aminium Bromide]: the 50% inhibitory concentration (IC50) in experiment [1] was determined as 930 nM; in experiment [2] (setting [4]) it was 1100 nM.
Consider `C#CC[N+](C)(C)CC(=C)C(=O)O.[Br-]` [Compound B52, 2-carboxy-N,N-dimethyl-N-(prop-2-yn-1-yl)prop-2-en-1-aminium Bromide], for which the “% change” value in experiment [3] (setting [5]) amounted to 20.76%. For the same compound, in experiment [3] (setting [6]), the “Mean plasma TMAO” value turned out to be 30.0 µM. For the same compound, the concentration for half-maximal inhibition (IC50) in experiment [1] was 10 nM; in experiment [2] (setting [4]), 40 nM and 30 nM.
As for `C#CCn1ccnc1` [Compound Z76, 1-(prop-2-yn-1-yl)-1H-imidazole], the results for the 50% inhibitory concentration (IC50) in experiment [1] and in experiment [2] (setting [4]) were at least 10000 nM and 4040 nM, respectively.

The IC50 is the concentration at which inhibition is half-maximal.
